Each structure is given as a SMILES string.

16 compounds from patent US11124495B2, “Tetrahydroisoquinolines and terahydronaphthyridines for the treatment of hepatitis B virus infection” (Hoffmann-La Roche Inc., priority 2016, dated 2021) can be followed below.

The first assay deals with HBsAg. Kind of assay: HBsAg assay (CLIA on supernatant of HepG2.2.15 cells). The class given is cell-based, HBV. The note with it: Hepatitis B virus, HepG2.2.15, read-out: IC50 in HBsAg assay, HepG2.2.15 cells; HBsAg secretion reduced by 50% compared to the no drug control. How it is done: (§1) HepG2.2.15 cells (Acs et al. Proc Natl Acad Sci USA, 84, (1987), 4641-4), a constitutively HBV-expressing cell line were cultured in DMEM+Glutamax-I medium (Invitrogen, Carlsbad, Calif., USA), supplemented with 10% fetal bovine serum (Invitrogen) and G418 (Invitrogen) at a final concentration of 200 mg/L and maintained in 5% CO2 at 37° C.
HepG2.2.15 cells were seeded in duplicate into white, 96-well plates at 1.5×10^4 cells/well. The cells were treated with a three-fold serial dilution series of the compounds in DMSO. The final DMSO concentration in all wells was 1% and DMSO was used as no drug control.
The HBsAg chemiluminescence immunoassay (CLIA) kit (Autobio Diagnostics Co., Zhengzhou, China, Catalog number: CL0310-2) was used to measure the levels of secreted HBV antigens semi-quantitatively. For the detection 50 μL/well culture supernatant was used and HBsAg was quantified using HBsAg chemiluminescence immunoassay (CLIA) kit (Autobio Diagnostics Co., Zhengzhou, China, Catalog number: CL0310-2), 50 μL of the supernatant was transferred to the CLIA assay plate and 50 μL of enzyme conjugate reagent was added into each well. The plates were sealed and gently agitated for 1 hour at room temperature. The supernatant-enzyme-mixture was discarded and wells were washed 6 times with 300 μL of PBS. The residual liquid was removed by plating the CLIA plate right side down on absorbent tissue paper. 25 μL of substrates A and B were added to each well. Luminance was measured using a luminometer (Mithras LB 940 Multimode Microplate Reader) after 10 minutes incubation. Dose-response curves were generated and the IC50 value was extrapolated by using the E-WorkBook Suite (ID Business Solutions Ltd., Guildford, UK). The IC50 was defined as the compound concentration at which HBsAg secretion was reduced by 50% compared to the no drug control.
The compounds according to formula I were tested for their capacity to inhibit HBsAg as described herein.
For the compound `Fc1cc(OCC(F)F)cc2c1CCN(c1cnc(-c3ncccn3)nc1)C2` [Example 19, 7-(2,2-Difluoroethoxy)-5-fluoro-2-(2-pyrimidin-2-ylpyrimidin-5-yl)-3,4-dihydro-1H-isoquinoline], the IC50 (as a rule, the point on the concentration scale where inhibition reaches its midpoint) was 255 nM.

As for `NC(=O)COc1cc(F)c2c(c1)CN(c1cnc(-c3ncccn3)nc1)CC2` [Example 28, 2-[[5-Fluoro-2-(2-pyrimidin-2-ylpyrimidin-5-yl)-3,4-dihydro-1H-isoquinolin-7-yl]oxy]acetamide], the IC50 is 8520 nM.

For `CCC1c2cc(OC)cc(F)c2CCN1c1cnc(-c2ncccn2)nc1` (centres unmarked) [Example 33, Ethyl-5-fluoro-7-methoxy-2-(2-pyrimidin-2-ylpyrimidin-5-yl)-3,4-dihydro-1H-isoquinoline], the IC50 turned out to be 790 nM.

With `c1cnc(-c2ncc(N3CCc4cc(C5CC5)ccc4C3)cn2)nc1` [Example 24, 6-Cyclopropyl-2-(2-pyrimidin-2-ylpyrimidin-5-yl)-3,4-dihydro-1H-isoquinoline], the IC50 was 1380 nM.

Take `COc1cc(Cl)c2c(c1)CN(c1cnc(-c3ncccn3)nc1)CC2` [Example 31, 5-Chloro-7-methoxy-2-(2-pyrimidin-2-ylpyrimidin-5-yl)-3,4-dihydro-1H-isoquinoline]: the IC50 worked out at 68 nM.

`COc1cc(F)cc2c1CCN(c1cnc(-c3ncccn3)nc1)C2` [Example 6, 7-Fluoro-5-methoxy-2-(2-pyrimidin-2-ylpyrimidin-5-yl)-3,4-dihydro-1H-isoquinoline]: the IC50 is 454 nM.

Regarding `Clc1ccc2c(c1)CN(c1cnc(-c3ncccn3)nc1)CC2` [Example 22, 7-Chloro-2-(2-pyrimidin-2-ylpyrimidin-5-yl)-3,4-dihydro-1H-isoquinoline], the IC50 stood at 2040 nM.

On to `c1cnc(-c2ncc(N3CCc4ccccc4C3)cn2)nc1` [Example 1, 2-(2-Pyrimidin-2-ylpyrimidin-5-yl)-3,4-dihydro-1H-isoquinoline], for which the IC50 is 3170 nM.

For the compound `c1cnc(-c2ncc(N3CCc4ccc(C5CC5)cc4C3)cn2)nc1` [Example 15, 7-Cyclopropyl-2-(2-pyrimidin-2-ylpyrimidin-5-yl)-3,4-dihydro-1H-isoquinoline], the IC50 amounted to 1690 nM.

On to `COc1cc(F)c2c(c1)CN(c1cnc(-c3ncccn3)cn1)CC2` [Example 8, 5-Fluoro-7-methoxy-2-(5-pyrimidin-2-ylpyrazin-2-yl)-3,4-dihydro-1H-isoquinoline], for which the IC50 turned out to be 445 nM.

Regarding `COc1ccc2c(c1)CCN(c1cnc(-c3ncccn3)nc1)C2` [Example 4, 6-Methoxy-2-(2-pyrimidin-2-ylpyrimidin-5-yl)-3,4-dihydro-1H-isoquinoline], the IC50 turned out to be 5200 nM.

`COC1CN(c2ccc3c(c2)CN(c2cnc(-c4ncccn4)nc2)CC3)C1` [Example 26, 7-(3-Methoxyazetidin-1-yl)-2-(2-pyrimidin-2-ylpyrimidin-5-yl)-3,4-dihydro-1H-isoquinoline]: the IC50 is 1410 nM.

Consider `COc1cc2c(cc1OC)CN(c1cnc(-c3ncccn3)nc1)CC2` [Example 3, 6,7-Dimethoxy-2-(2-pyrimidin-2-ylpyrimidin-5-yl)-3,4-dihydro-1H-isoquinoline], for which the IC50 is 2320 nM.

Regarding `COc1ccc2c(n1)CN(c1cnc(-c3ncccn3)nc1)CC2` [Example 12, 2-Methoxy-7-(2-pyrimidin-2-ylpyrimidin-5-yl)-6,8-dihydro-5H-1,7-naphthyridine], the IC50 worked out at 5770 nM.

The same assay, now with this note: read-out: IC50 in HBsAg assay; HepG2.2.15 cells; HBsAg secretion reduced by 50% compared to the no drug control.
Regarding `Fc1ccc2c(c1)CN(c1cnc(-c3ncccn3)nc1)CC2` [Example 2, 7-Fluoro-2-(2-pyrimidin-2-ylpyrimidin-5-yl)-3,4-dihydro-1H-isoquinoline], the IC50 is 22500 nM.

Take `Fc1ccc2c(c1)CN(c1cnc(-c3ncccn3)nc1)CC2` [Example 11, 7-Fluoro-2-(2-pyrimidin-2-ylpyrimidin-5-yl)-3,4-dihydro-1H-isoquinoline]: the IC50 amounted to 3890 nM.

Another assay has as its system HBV DNA. The experiment in a line: HBV DNA assay (real-time qPCR of extracellular HBV DNA, HepG2.2.15 cells). It counts as cell-based. The note with it: Hepatitis B virus, 144 h, extracellular HBV DNA in supernatant, six days after treatment, read-out: IC50, anti HBV DNA production activity. How it is done: as §1
The assay employs real-time qPCR (TaqMan) to directly measure extracellular HBV DNA copy number in the cell supernatant. HepG2.2.15 cells were plated in 96-well microtiter plates before treatment with complete medium (DMEM, Glutamax, 10% FBS, 1% Penicillin/Streptomycin, 250 μg/mL Genetycin, final DMSO concentration is 1%). Only the interior wells were utilized to reduce “edge effects” observed during cell culture, the exterior wells were filled with complete medium to help minimize sample evaporation. […]
(In general: Quantitative PCR measures a nucleic acid by following its amplification.)
For `COc1cc(F)c2c(c1)CN(c1cnc(-c3ncccn3)cn1)CC2` [Example 8, 5-Fluoro-7-methoxy-2-(5-pyrimidin-2-ylpyrazin-2-yl)-3,4-dihydro-1H-isoquinoline], the IC50 is 292 nM.
